Assay results reported in patent publication US20120039826A1, “COSMETIC COMPOSITION FOR SKIN LIGHTENING” (priority 2009, published 2012).

Tested on: Keratinocytes (HaCaT cells)
Assay: Keratinocyte differentiation assay
Assay type: cell-based
Conditions: HaCaT cells cultured with active 24 hours, acridine orange, % of control (control = 100)
Protocol: Keratinocyte Differentiation Assay
This is an in vitro cell culture based assay to evaluate the capability of these actives to alter cell differentiation process. Keratinocytes (HaCaT cells—5×10^4 cells/well) were grown in 24 well plates for 24 hours. These proliferating keratinocytes were further cultured with actives for 24 hours. Cells were then washed with PBS and stained with acridine orange in PBS (Sigma Chemical Co, USA). Cells were washed 15 minutes later and viewed using an epi-fluorescent microscope (Olympus BX 50), at 20× magnification, using appropriate excitation and barrier filters, to simultaneously view red and green fluorescence (excitation: 460 nm and emission >515 nm). The entire plate was scanned and the percentage of differentiated keratinocytes (cells with red fluorescence evenly distributed within the cytoplasm) was estimated. Data were represented as % of control. Higher % values indicate increased cell differentiation.

Structure (SMILES)	% Differentiation (concentration 0.01%)	% Differentiation (concentration 0.002%)
O=C([O-])C(O)C(O)C(=O)[O-].[Na+].[Na+] (stereo not drawn) [Na tartarate (c4), Na tartarate]	165%	
CC(=O)[O-].[Na+] [Sodium acetate]	168%	175%
CC(=O)[O-].CC(=O)[O-].[Mg+2] [Magnesium acetate]	237%	250%
CC(=O)O.N [Ammonium acetate]		175%
